Test results published in patent EP4567103A1, “USE OF PYRUVATE FOR POTENTIATING NK CELLS” (LVMH Recherche, priority 2023, dated 2025).

Tests used:
NK cells [1] = assay: Intracellular ATP concentration in NK cells, luciferase-based assay (CellTiter-Glo 2.0); assay type: cell-based; conditions: Homo sapiens; isolated NK cells, 30,000 cells per well, pyruvate 0.01 to 10mM, 4 hours; read-out: EC50 for the intracellular ATP production (the pyruvate concentration at which the ATP production is half-maximal)
Protocol: (§1) Peripheral blood samples from healthy subjects were obtained from the French blood bank (Etablissement Français du sang, Lyon, France).
(§2) Human PBMCs were separated from peripheral blood by Ficoll® gradient centrifugation (Eurobio Laboratoires & AbCys) at room temperature. The PBMCs were kept at 4°C in complete medium overnight.
NK cells (CD56^Dim CD3) were isolated using an NK Cell Isolation Kit (Miltenyi Biotec) following the manufacturer's instructions, and then sorted (BD FACS ARIA II, purity > 99%, the following mAbs from eBioscience, BD Biosciences, Biolegend or Cell Signalling Technology were used: anti-CD56 (NCAM16.2), and anti-CD3 (UCHT1)). Freshly sorted NK cells were left to recover from the sorting overnight at 37°C with a non-activating dose of IL-15 (1 ng/ml, Peprotech) in RPMI 1640 medium additionally containing 10% FBS, 2mM HEPES, 2mM glutamine, 1mM pyruvate (sodium pyruvate) and 1% penicillin/streptomycin (HCL Technologies). […]
The intracellular ATP concentration at each concentration of pyruvate was measured using a luciferase-based assay following the manufacturer's instructions (CellTiter-Glo® 2.0 Cell Viability Assay and NAD/NADH-Glo Assay, Promega Corporation, Madison, WI). Luminescence was measured using a Tristar luminometer (Berthold).

NK cells [2] = assay: Cytotoxicity of NK cells against K562 NanoLuc-expressing target cells (bioluminescence lysis assay); assay type: cell-based; conditions: Homo sapiens; pyruvate 0.01 to 10 mM for 3 hours, then co-cultured for 4 hours with K562 NanoLuc-expressing target cells; read-out: EC50 for the cytotoxicity of the NK cells (the pyruvate concentration at which the cytotoxicity is half-maximal)
Protocol: as §1, §2
NK cells (CD56^Dim CD3) were isolated using an NK Cell Isolation Kit (Miltenyi Biotec) following the manufacturer's instructions, and then sorted (BD FACS ARIA II, purity > 99%, the following mAbs from eBioscience, BD Biosciences, Biolegend or Cell Signalling Technology were used: anti-CD56 (NCAM16.2), and anti-CD3 (UCHT1)). […]
NK cells were prepared as in Example 1, and were cultured in the absence or in the presence of pyruvate at varying concentrations (0.01 to 10 mM) for 3 hours and then co-cultured for 4 hours with K562 NanoLuc®-expressing target cells. The supernatant was collected and bioluminescence was measured using a Tristar Instrument luminometer (Berthold) after addition of Furimazin (the substrate of NanoLuc). The percentage of cell lysis were calculated as explained in Hayek, S. et al., SLAS Discov. […]

CC(=O)C(=O)O [pyruvate]
EC50 (NK cells [1]): 500 µM | EC50 (NK cells [2]): 260 µM
